This is an account of results in ChEMBL document CHEMBL3879914, “Inhibitors of central nervous system vasoactive inhibitory peptide receptor 2” (2014).

Structures are written as SMILES.

The target of assay [1] is T1, Vasoactive intestinal polypeptide receptor 2 (Homo sapiens) (UniProt P41587).
T1 sequence (whole entry): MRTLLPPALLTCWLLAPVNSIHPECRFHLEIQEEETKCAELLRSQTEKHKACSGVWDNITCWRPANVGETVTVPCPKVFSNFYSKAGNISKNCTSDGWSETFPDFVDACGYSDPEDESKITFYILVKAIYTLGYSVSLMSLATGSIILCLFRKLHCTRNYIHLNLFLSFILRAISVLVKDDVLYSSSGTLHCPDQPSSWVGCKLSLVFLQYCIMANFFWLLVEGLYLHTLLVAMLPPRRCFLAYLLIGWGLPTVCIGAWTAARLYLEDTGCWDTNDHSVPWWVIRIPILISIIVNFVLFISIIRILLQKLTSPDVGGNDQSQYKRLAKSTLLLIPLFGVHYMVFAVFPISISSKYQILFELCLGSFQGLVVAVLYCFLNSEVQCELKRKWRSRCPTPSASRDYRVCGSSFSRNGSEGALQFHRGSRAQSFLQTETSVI
The assay is described as follows: Antagonist activity at recombinant human N-terminal signal peptide/FLAG epitope-tagged VIPR2 expressed in HEK293 cells co-expressing CAMYEL assessed as inhibition of VIP-induced cAMP accumulation at 1 uM preincubated for 5 mins with luciferin, coelenterazine H followed by VIP addition measured after 5 mins by BRET assay relative to control. The class given is functional, cell-based.

Assay [2] has as its target T1, Vasoactive intestinal polypeptide receptor 2 (Homo sapiens). The assay is described as follows: Antagonist activity at recombinant human N-terminal signal peptide/FLAG epitope-tagged Rluc8-fused VIPR2 expressed in HEK293 cells assessed as inhibition of VIP-induced human mVenus-beta-arrestin2 binding at 1 uM preincubated for 5 mins with luciferin, coelenterazine H followed by VIP addition measured after 5 mins by BRET assay relative to control. Format: cell-based.

For assay [3] the target is unchanged. Nature of the assay: Antagonist activity at recombinant human N-terminal signal peptide/FLAG epitope-tagged Rluc8-fused VIPR2 expressed in HEK293 cells assessed as inhibition of VIP-induced human mVenus-beta-arrestin2 binding at 0.5 uM preincubated for 5 mins with luciferin, coelenterazine H followed by VIP addition measured after 5 mins by BRET assay relative to control. The class given is cell-based.

For assay [4] the target is unchanged. Nature of the assay: Antagonist activity at recombinant human N-terminal signal peptide/FLAG epitope-tagged VIPR2 expressed in HEK293 cells co-expressing CAMYEL assessed as inhibition of VIP-induced cAMP accumulation at 5 uM preincubated for 5 mins with luciferin, coelenterazine H followed by VIP addition measured after 5 mins by BRET assay relative to control. The class given is functional, cell-based.

For assay [5] the target is unchanged. The assay is described as follows: Antagonist activity at recombinant human N-terminal signal peptide/FLAG epitope-tagged Rluc8-fused VIPR2 expressed in HEK293 cells assessed as inhibition of VIP-induced human mVenus-beta-arrestin2 binding at 5 uM preincubated for 5 mins with luciferin, coelenterazine H followed by VIP addition measured after 5 mins by BRET assay relative to control. Format: cell-based.

The target is the same in assay [6]. The assay is described as follows: Antagonist activity at recombinant human N-terminal signal peptide/FLAG epitope-tagged VIPR2 expressed in HEK293 cells co-expressing CAMYEL assessed as inhibition of VIP-induced cAMP accumulation at 0.5 uM preincubated for 5 mins with luciferin, coelenterazine H followed by VIP addition measured after 5 mins by BRET assay relative to control. The class given is functional, cell-based.

For `O=C(NC[C@@H](O)C[C@@H](Cc1ccccc1)C(=O)N[C@H]1c2ccccc2C[C@H]1O)C(Cl)Cl`, the inhibition in assay [1] is 18.3%; in assay [2] it was 17.4%; in assay [3], 9.5 to 19.8%; in assay [4], 19.6%; in assay [5] it was 20%; in assay [6], 18.4%.

Regarding `O=C(Nc1ccc(S(=O)(=O)NC[C@@H](O)C[C@@H](Cc2ccccc2)C(=O)N[C@H]2c3ccccc3C[C@H]2O)cc1)C1CC1`, the inhibition in assay [1] is 23%; in assay [2], -0.3%; in assay [3] it was 6.4 to 15.1%; in assay [4], 34.3%; in assay [5] it was -4.2%; in assay [6] it was -2.4%.

Turning to `C=Cc1ccc(C(=O)NC[C@@H](O)C[C@@H](Cc2ccccc2)C(=O)N[C@H]2c3ccccc3C[C@H]2O)cc1`, the inhibition in assay [1] was 16.5%; in assay [2] it was 47.5%; in assay [3], 2.3 to 12.8%; in assay [4] it was 23.8%; in assay [5] it was 1.8%; in assay [6], 16.1%.

With `Nc1ccc(S(=O)(=O)NC[C@@H](O)C[C@@H](Cc2ccccc2)C(=O)N[C@H]2c3ccccc3C[C@H]2O)cc1`, the inhibition in assay [1] was 18.6%; in assay [2], -5.5%; in assay [3], -5.6 to 20%; in assay [4], 33.3%; in assay [5] it was 6.7%; in assay [6], 8.4%.

With `CC(C)c1ccc(S(=O)(=O)NC[C@@H](O)C[C@@H](Cc2ccccc2)C(=O)N[C@H]2c3ccccc3C[C@H]2O)cc1`, the inhibition was 44.2% in assay [1]; 63.1% in assay [2]; 31.5 to 93% in assay [3]; 98.2% in assay [4]; 87.7% in assay [5]; 36.5% in assay [6].

Take `O=C(NCc1ccc(F)cc1F)[C@@H](Cc1ccccc1)C[C@H](O)CNS(=O)(=O)c1ccc([N+](=O)[O-])cc1`: the inhibition in assay [1] was 4.7 to 13.8%; in assay [2], 20%; in assay [3], 21.1 to 23.9%; in assay [4], 13.8 to 18.2%; in assay [5], 24%; in assay [6], -5.4%.

Take `COc1cc(C(=O)NC[C@@H](O)C[C@@H](Cc2ccccc2)C(=O)N[C@H]2c3ccccc3C[C@H]2O)cc(OC)c1OC`: the inhibition in assay [1] was 20%; in assay [2], 37.2%; in assay [3], 13.7 to 29.6%; in assay [4] it was 9.3%; in assay [5], 18%; in assay [6] it was 15.6%.

Regarding `O=C(NCc1ccccc1)[C@H](Cc1ccccc1)C[C@H](O)CNS(=O)(=O)c1ccc([N+](=O)[O-])cc1`, the inhibition was -1.3% in assay [1]; 4.4% in assay [2]; 1.8 to 10.7% in assay [3]; -2.9% in assay [4]; 24.2% in assay [5]; -1.1% in assay [6].

On to `CCN(CC)C(=O)c1ccc(S(=O)(=O)NC[C@@H](O)C[C@@H](Cc2ccccc2)C(=O)N[C@H]2c3ccccc3C[C@H]2O)cc1`, for which the inhibition in assay [1] was 5.9%; in assay [2] it was 3.1%; in assay [3] it was 0.3 to 15.3%; in assay [4], 31.8%; in assay [5], -1.2%; in assay [6], 2.5%.

Consider `O=C(N[C@H]1c2ccccc2C[C@H]1O)[C@H](Cc1ccccc1)C[C@H](O)CNS(=O)(=O)c1ccc(C(F)(F)F)cc1`, for which the inhibition in assay [1] is 63.1%; in assay [2], 83%; in assay [3], 58.1 to 95.7%; in assay [4], 98.5%; in assay [5] it was 92.9%; in assay [6], 42%.

As to `CC(C)CNc1ccc(S(=O)(=O)NC[C@@H](O)C[C@@H](Cc2ccccc2)C(=O)N[C@H]2c3ccccc3C[C@H]2O)cc1`, the inhibition was 16.7% in assay [1]; 5.2% in assay [2]; 10.2 to 19.6% in assay [3]; 27.4% in assay [4]; 11.9% in assay [5]; 21.6% in assay [6].

On to `O=C(NC[C@@H](O)C[C@@H](Cc1ccccc1)C(=O)N[C@H]1c2ccccc2C[C@H]1O)C1CCCCCC1`, for which the inhibition in assay [1] was 17%; in assay [2], 16.4%; in assay [3] it was 13.8 to 24.4%; in assay [4], 17%; in assay [5], 10.5%; in assay [6], 18.4%.

In the case of `CC(=O)Nc1ccc(S(=O)(=O)NC[C@H](C[C@@H](Cc2ccccc2)C(=O)N[C@H]2c3ccccc3C[C@H]2OC(C)=O)OC(C)=O)cc1`, the inhibition was -8.7% in assay [1]; 0.2% in assay [2]; 0.5 to 1.95% in assay [3]; -5.8% in assay [4]; 9.7% in assay [5]; -8.7% in assay [6].

As for `O=C(N[C@H]1c2ccccc2C[C@H]1O)[C@H](Cc1ccccc1)C[C@H](O)CNS(=O)(=O)c1ccc(C(=O)N2CCOCC2)cc1`, the inhibition in assay [1] was 0.1%; in assay [2], 1.8%; in assay [3], 4.1 to 10.1%; in assay [4], 25.5%; in assay [5], -5.4%; in assay [6], -1.4%.

For `NC[C@@H](O)C[C@@H](Cc1ccccc1)C(=O)N[C@H]1c2ccccc2C[C@H]1O`, the inhibition in assay [1] is 7.4 to 15.9%; in assay [2], 1.4%; in assay [3], 3.7 to 17.4%; in assay [4], 7.4 to 15.2%; in assay [5] it was 19.7%; in assay [6] it was 11.8%.

In the case of `O=C(NC[C@@H](O)C[C@@H](Cc1ccccc1)C(=O)N[C@H]1c2ccccc2C[C@H]1O)c1ccco1`, the inhibition in assay [1] is 22.5%; in assay [2], 27.7%; in assay [3], 26.2 to 30.3%; in assay [4], 19.1%; in assay [5], 33.3%; in assay [6] it was 20.8%.

Turning to `O=C(CCCCl)NC[C@@H](O)C[C@@H](Cc1ccccc1)C(=O)N[C@H]1c2ccccc2C[C@H]1O`, the inhibition in assay [1] was 18.2%; in assay [2] it was 24.3%; in assay [3] it was 18.5 to 19.2%; in assay [4] it was 15.9%; in assay [5] it was 21.1%; in assay [6], 16.4%.

On to `CNC(=O)[C@H](Cc1ccccc1)C[C@H](O)CNS(=O)(=O)c1ccc([N+](=O)[O-])cc1`, for which the inhibition in assay [1] was 8.3%; in assay [2], 4%; in assay [3] it was 6.25 to 6.9%; in assay [4] it was 9.3%; in assay [5] it was 3.2%; in assay [6] it was 7%.

Regarding `O=C(NN1CCCCC1)[C@H](Cc1ccccc1)C[C@H](O)CNS(=O)(=O)c1ccc([N+](=O)[O-])cc1`, the inhibition is 7.1% in assay [1]; 4.4% in assay [2]; -6.4 to 5.45% in assay [3]; 4.4% in assay [4]; 6.5% in assay [5]; 6.3% in assay [6].

For `CS(=O)(=O)NC[C@@H](O)C[C@@H](Cc1ccccc1)C(=O)N[C@H]1c2ccccc2C[C@H]1O`, the inhibition in assay [1] was 21.9%; in assay [2], 31.6%; in assay [3], 17.3 to 20.9%; in assay [4], 18.5%; in assay [5] it was 23.4%; in assay [6] it was 21.4%.
